Columns and labels:
[1] = molecular target: Human Full Length PARG (Homo sapiens (Human), UniProt Q86W56); experiment: PARG enzyme assay (TR-FRET); type: biochemical; conditions: read-out: PARG Biochem IC50
[2] = tested on: PARG in HeLa cell line; experiment: PARG cell assay (PAR chain immunofluorescence after MMS); type: cell-based; conditions: Homo sapiens; HeLa cells, MMS treatment; read-out: PARG Cell IC50
Summary of the method: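 Nuclear poly(ADP-ribose) chains in HeLa cells are read by indirect immunofluorescence with a mouse anti-PAR antibody applied overnight at 4° C after fixing and permeabilising. Cells get 1 h of compound, then 50 μg/mL MMS (final) for another hour. PAR persisting at that point reflects PARG inhibition.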

[3] = molecular target: Human Full Length ARH3 (Homo sapiens (Human), UniProt Q9NX46); experiment: ARH3 in vitro selectivity assay (TR-FRET); type: biochemical; conditions: read-out: ARH3 Biochem IC50
Description: ARH3 In vitro selectivity assays were conducted in a total volume of 15 ul in a standard 384 well format.

[4] = molecular target: Human High specific Activity PARP1 (Homo sapiens (Human), UniProt P09874); experiment: PARP1 in vitro selectivity assay (histone PARylation, luminescence); type: biochemical; conditions: read-out: PARP1 Biochem IC50
Description: PARP1 In vitro selectivity assays were conducted as a 10 ul reaction volume in a NUNC Maxisorp 384-well assay plate pre-coated in-house with Histones. […] The wells were then washed with PBS/0.1% Triton X100. PARP1 activity was then detected by measuring the extent of PARylation. […] Luminescence signal was then measured immediately.

Chain of Human Full Length ARH3 (Q9NX46 whole entry): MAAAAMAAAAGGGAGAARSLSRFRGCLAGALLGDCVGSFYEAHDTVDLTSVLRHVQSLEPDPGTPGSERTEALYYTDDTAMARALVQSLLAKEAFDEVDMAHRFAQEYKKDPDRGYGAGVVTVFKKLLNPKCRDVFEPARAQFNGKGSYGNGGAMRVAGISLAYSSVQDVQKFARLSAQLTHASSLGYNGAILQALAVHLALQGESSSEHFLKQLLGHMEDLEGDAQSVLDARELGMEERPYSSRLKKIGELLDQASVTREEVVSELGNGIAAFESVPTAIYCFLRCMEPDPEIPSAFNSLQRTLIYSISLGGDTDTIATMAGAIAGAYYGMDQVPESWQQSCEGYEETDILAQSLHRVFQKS
Chain of Human Full Length PARG (Q86W56 whole entry): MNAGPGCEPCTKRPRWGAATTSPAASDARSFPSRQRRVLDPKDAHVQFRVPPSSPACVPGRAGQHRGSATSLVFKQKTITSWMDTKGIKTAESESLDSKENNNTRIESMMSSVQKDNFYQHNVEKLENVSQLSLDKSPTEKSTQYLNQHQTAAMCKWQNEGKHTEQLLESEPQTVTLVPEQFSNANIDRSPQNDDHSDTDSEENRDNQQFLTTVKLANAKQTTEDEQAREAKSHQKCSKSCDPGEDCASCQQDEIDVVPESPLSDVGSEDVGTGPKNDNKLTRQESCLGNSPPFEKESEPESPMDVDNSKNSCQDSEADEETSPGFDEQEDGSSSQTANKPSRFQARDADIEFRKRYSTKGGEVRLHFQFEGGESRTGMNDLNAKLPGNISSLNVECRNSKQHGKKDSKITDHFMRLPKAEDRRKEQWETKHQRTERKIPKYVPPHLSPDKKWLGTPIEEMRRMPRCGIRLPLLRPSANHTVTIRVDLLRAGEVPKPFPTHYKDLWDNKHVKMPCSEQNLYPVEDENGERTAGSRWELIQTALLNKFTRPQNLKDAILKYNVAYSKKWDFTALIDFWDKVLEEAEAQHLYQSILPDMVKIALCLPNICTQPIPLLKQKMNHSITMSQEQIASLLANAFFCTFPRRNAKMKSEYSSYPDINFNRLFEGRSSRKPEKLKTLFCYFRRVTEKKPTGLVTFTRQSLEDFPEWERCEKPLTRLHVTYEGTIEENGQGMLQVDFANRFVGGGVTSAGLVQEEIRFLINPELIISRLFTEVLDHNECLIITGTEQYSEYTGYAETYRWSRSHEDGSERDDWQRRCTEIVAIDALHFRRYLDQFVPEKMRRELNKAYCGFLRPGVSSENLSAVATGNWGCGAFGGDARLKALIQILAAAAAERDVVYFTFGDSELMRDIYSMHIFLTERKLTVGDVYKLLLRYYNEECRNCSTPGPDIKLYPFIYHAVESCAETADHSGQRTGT
Chain of Human High specific Activity PARP1 (P09874 whole entry): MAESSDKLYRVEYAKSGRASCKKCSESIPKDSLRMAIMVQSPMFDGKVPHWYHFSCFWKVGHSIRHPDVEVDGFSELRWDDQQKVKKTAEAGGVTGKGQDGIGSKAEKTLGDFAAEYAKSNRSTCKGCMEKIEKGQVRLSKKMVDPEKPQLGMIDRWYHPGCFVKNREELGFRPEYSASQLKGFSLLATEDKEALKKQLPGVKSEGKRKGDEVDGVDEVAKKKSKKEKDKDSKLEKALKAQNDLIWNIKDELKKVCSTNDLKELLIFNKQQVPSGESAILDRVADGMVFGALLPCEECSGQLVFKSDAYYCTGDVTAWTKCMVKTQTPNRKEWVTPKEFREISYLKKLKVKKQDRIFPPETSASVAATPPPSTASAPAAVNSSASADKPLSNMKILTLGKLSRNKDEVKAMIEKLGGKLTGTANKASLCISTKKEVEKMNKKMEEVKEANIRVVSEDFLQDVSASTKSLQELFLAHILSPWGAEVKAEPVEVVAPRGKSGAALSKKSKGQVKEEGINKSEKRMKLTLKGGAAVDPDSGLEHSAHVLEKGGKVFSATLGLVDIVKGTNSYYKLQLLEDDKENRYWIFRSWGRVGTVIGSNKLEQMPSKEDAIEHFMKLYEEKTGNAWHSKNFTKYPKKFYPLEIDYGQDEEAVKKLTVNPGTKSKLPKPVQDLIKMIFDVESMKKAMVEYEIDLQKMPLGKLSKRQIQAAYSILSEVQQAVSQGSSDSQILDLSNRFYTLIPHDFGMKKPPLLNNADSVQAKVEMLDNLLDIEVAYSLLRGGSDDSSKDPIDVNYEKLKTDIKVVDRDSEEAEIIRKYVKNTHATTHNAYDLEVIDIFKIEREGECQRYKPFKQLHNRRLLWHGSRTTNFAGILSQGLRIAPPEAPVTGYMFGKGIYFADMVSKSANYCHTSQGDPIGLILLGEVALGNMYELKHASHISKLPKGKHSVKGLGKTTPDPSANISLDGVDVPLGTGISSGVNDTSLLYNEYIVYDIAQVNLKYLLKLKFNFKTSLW

Row | IC50 [1] | IC50 [2] | IC50 [3] | IC50 [4] | SMILES
1 | 6 nM | 9 nM | > 150000 nM | > 150000 nM | Cc1nc(C)c(Cn2c(=O)n(Cc3cnn(C)c3)c(=O)c3cc(S(=O)(=O)NC4(CF)CC4)ccc32)s1 [Example 463, 1-[(2,4-Dimethylthiazol-5-yl)methyl]-N-[1-(fluoromethyl)cyclopropyl]-3-[(1-methylpyrazol-4-yl)methyl]-2,4-dioxo-quinazoline-6-sulfonamide]
2 | 131 nM | 135 nM | > 150000 nM | > 150000 nM | CCn1c(=O)n(Cc2nnc(C)s2)c(=O)c2cc(S(=O)(=O)NC3(CF)CC3)ccc21 [Example 602, 1-Ethyl-N-[1-(fluoromethyl)cyclopropyl]-3-[(5-methyl-1,3,4-thiadiazol-2-yl)methyl]-2,4-dioxo-quinazoline-6-sulfonamide]

From patent US10239843B2 (CANCER RESEARCH TECHNOLOGY LIMITED, priority 2014, dated 2019)
